Results on 16 compounds are retold here after ChEMBL document CHEMBL4422610, “HDAC as onco target: Reviewing the synthetic approaches with SAR study of their inhibitors” (Eur J Med Chem, 2018).

Chain of Histone deacetylase 3 (O15379 whole entry): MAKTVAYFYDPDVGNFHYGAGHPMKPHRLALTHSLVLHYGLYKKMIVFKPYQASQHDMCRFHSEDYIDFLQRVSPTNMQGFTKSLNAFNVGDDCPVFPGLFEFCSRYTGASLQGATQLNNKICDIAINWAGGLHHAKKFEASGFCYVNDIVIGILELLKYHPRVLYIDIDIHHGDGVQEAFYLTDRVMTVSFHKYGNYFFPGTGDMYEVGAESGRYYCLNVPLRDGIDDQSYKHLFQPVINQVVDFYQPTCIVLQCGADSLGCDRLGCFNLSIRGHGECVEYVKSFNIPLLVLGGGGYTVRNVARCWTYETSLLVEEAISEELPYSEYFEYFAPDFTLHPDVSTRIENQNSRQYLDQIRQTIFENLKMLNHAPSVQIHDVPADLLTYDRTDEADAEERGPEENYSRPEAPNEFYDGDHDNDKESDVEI

In one assay the target is Histone deacetylase (Homo sapiens) (UniProt Q13547+O15379+Q9UBN7+Q92769+Q9UQL6+Q8WUI4+Q9BY41+Q96DB2+P56524+Q9UKV0+Q969S8). The assay can be described thus: Inhibition of HDAC in human K562 cells assessed as increase in histone acetylation levels at 500 nM after 3 hrs by FACS analysis relative to SAHA. It counts as cell-based.
Conditions: not given
Regarding `O=C(CCCCCCn1cc(-c2ccc(Oc3ccccc3)cc2)nn1)NO`, the histone acetylation relative to SAHA was 53%.
With `COc1ccc(-c2cn(CCCCCCC(=O)NO)nn2)cc1`, the histone acetylation relative to SAHA is 85%.
Regarding `O=C(CCCCCn1cc(-c2ccccc2)nn1)NO`, the histone acetylation relative to SAHA was 48%.
Consider `O=C(CCCCCCn1cc(-c2ccccc2)nn1)NO`, for which the histone acetylation relative to SAHA turned out to be 108%.

Another assay concerns HCT-116. The assay can be described thus: cells. It counts as functional, cell-based. The following applies: Homo sapiens, HCT-116, 72 h.
Compound `O=C(CCCCCCn1cc(-c2ccc(Oc3ccccc3)cc2)nn1)NO` yielded an IC50 of 3.55 µM.
The compound `COc1ccc(-c2cn(CCCCCCC(=O)NO)nn2)cc1` returned an IC50 of 1.78 µM.
On the same count and under the same terms, under `O=C(CCCCCn1cc(-c2ccccc2)nn1)NO` stands 9.37 µM; under `O=C(CCCCCCn1cc(-c2ccccc2)nn1)NO`, 1.39 µM.

The test system of another assay is A549. The assay can be described thus: cells. The settings on record: Homo sapiens, A549, 72 h. It counts as functional, cell-based.
Compound `O=C(CCCCCCn1cc(-c2ccc(Oc3ccccc3)cc2)nn1)NO` came in with a half-inhibitory concentration (IC50) of 4.34 µM.
On the same count and under the same terms, under `COc1ccc(-c2cn(CCCCCCC(=O)NO)nn2)cc1` stands 2.84 µM.
The same measure, in the same setting: under `O=C(CCCCCn1cc(-c2ccccc2)nn1)NO` stands 12.5 µM; under `O=C(CCCCCCn1cc(-c2ccccc2)nn1)NO`, 1.98 µM.

For the next assay, the system named is K562. In words: cells. It counts as functional, cell-based. The following applies: Homo sapiens, K562, 72 h.
Take `O=C(CCCCCCn1cc(-c2ccc(Oc3ccccc3)cc2)nn1)NO`: the midpoint of inhibition, the IC50, lay at 3.3 µM.
With `COc1ccc(-c2cn(CCCCCCC(=O)NO)nn2)cc1`, the IC50 worked out at 1.53 µM.
The compound `O=C(CCCCCn1cc(-c2ccccc2)nn1)NO` gave an IC50 of 8.35 µM.
`O=C(CCCCCCn1cc(-c2ccccc2)nn1)NO`: half-maximal inhibition (IC50) was put at 1.21 µM.

The target in another assay is T1, Histone deacetylase 1 (Homo sapiens, UniProt Q13547). In words: Inhibition of recombinant human His-tagged HDAC1 (482 residues) expressed in baculovirus infected insect cells using Boc Lys(Ac)-AMC as substrate preincubated for 5 mins followed by substrate addition and measured after 30 mins by fluorescence assay.
T1 sequence (Q13547 whole entry): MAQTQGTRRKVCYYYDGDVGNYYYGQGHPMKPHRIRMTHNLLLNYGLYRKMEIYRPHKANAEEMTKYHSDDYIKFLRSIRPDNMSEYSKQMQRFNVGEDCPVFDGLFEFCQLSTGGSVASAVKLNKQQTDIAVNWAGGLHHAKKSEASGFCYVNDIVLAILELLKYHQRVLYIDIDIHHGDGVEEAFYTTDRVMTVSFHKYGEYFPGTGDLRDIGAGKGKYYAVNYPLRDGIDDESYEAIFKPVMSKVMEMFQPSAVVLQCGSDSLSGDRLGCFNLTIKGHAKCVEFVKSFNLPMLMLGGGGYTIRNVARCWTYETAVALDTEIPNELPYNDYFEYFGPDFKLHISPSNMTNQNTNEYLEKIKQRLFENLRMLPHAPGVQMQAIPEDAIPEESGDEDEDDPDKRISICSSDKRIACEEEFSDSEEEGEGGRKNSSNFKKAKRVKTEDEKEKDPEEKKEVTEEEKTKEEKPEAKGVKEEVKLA
Conditions: not given
On to `CC(C)CCc1c(OCCOc2cccc(/C=C/C(=O)NO)c2)ccc2c1OC(=O)CC2`, for which the IC50 worked out at 0.0668 µM.
With `CC(C)CCc1c(OCCOc2ccc(/C=C/C(=O)NO)cc2)ccc2c1OC(=O)CC2`, the IC50 turned out to be 0.0832 µM.
Regarding `CC(C)CCc1c(OCCCOc2cccc(/C=C/C(=O)NO)c2)ccc2c1OC(=O)CC2`, the IC50 was 0.0647 µM.
Regarding `CC(C)CCc1c(OCCCCOc2ccc(/C=C/C(=O)NO)cc2)ccc2c1OC(=O)CC2`, the IC50 is 0.204 µM.

In a further assay the target is T2, Protein deacetylase HDAC6 (Homo sapiens, UniProt Q9UBN7).
T2 sequence (Q9UBN7 whole entry): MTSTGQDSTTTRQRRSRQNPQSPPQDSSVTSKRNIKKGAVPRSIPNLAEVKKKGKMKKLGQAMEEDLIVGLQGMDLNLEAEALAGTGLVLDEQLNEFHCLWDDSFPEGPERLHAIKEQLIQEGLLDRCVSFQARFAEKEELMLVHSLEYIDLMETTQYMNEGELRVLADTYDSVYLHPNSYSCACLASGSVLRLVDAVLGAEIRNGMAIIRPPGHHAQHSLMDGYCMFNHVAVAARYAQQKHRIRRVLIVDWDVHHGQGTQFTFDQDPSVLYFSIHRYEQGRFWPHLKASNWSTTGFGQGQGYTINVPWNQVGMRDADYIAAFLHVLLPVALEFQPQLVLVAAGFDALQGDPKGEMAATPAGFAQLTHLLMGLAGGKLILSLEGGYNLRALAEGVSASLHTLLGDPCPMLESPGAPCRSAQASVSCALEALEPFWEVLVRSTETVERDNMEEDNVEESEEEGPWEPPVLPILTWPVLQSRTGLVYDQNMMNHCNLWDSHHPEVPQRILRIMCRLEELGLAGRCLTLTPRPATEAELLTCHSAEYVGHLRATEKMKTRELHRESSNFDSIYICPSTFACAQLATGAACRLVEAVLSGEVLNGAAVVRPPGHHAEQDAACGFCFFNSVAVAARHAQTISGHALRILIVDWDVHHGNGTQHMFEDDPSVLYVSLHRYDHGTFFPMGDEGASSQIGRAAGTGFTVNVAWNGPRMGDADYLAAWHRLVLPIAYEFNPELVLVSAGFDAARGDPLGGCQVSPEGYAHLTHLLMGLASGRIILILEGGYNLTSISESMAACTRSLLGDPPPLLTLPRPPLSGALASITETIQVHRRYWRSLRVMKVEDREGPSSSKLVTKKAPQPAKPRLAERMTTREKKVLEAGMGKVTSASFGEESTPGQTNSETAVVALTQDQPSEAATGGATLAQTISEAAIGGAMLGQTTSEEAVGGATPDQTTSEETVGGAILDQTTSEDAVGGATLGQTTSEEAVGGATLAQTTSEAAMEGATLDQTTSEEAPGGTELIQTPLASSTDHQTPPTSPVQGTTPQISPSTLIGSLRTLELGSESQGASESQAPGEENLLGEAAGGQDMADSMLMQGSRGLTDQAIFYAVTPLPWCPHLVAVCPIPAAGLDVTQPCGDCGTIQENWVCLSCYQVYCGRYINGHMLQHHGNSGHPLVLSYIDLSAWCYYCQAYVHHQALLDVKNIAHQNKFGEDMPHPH
The assay can be described thus: Inhibition of recombinant human His-tagged HDAC6 expressed in baculovirus infected insect cells using Boc Lys(Ac)-AMC as substrate preincubated for 5 mins followed by substrate addition and measured after 30 mins by fluorescence assay.
Conditions: not given
`CC(C)CCc1c(OCCOc2cccc(/C=C/C(=O)NO)c2)ccc2c1OC(=O)CC2`: the IC50 is 0.00631 µM.
For the compound `CC(C)CCc1c(OCCOc2ccc(/C=C/C(=O)NO)cc2)ccc2c1OC(=O)CC2`, the IC50 was determined as 0.0556 µM.
Take `CC(C)CCc1c(OCCCOc2cccc(/C=C/C(=O)NO)c2)ccc2c1OC(=O)CC2`: the IC50 is 0.0121 µM.
Take `CC(C)CCc1c(OCCCCOc2ccc(/C=C/C(=O)NO)cc2)ccc2c1OC(=O)CC2`: the IC50 stood at 0.0826 µM.

For a further assay, the target named is Histone deacetylase (HDAC1 and HDAC2) (Homo sapiens, UniProt Q13547+Q92769).
Test: not given
It counts as cell-based. The following applies: hela.
The compound `COc1cc(/C=C/C(=O)NO)ccc1OCCCNC(=O)c1ccccc1O` displayed an IC50 of 0.37 µM.
Consider `COc1cc(/C=C/C(=O)NO)ccc1OCCCCNC(=O)c1ccccc1O`, for which the IC50 stood at 0.22 µM.
For `COc1cc(/C=C/C(=O)NO)ccc1OCCN(C)C(=O)c1ccccc1O`, the IC50 amounted to 0.24 µM.
`COc1cc(/C=C/C(=O)NO)ccc1OCCCN(C)C(=O)c1ccccc1O` displayed an IC50 of 0.18 µM.
The compound `COc1cc(/C=C/C(=O)NO)ccc1OCCCCN(C)C(=O)c1ccccc1O` yielded an IC50 of 0.22 µM.

A further assay addresses Histone deacetylase 3 (Homo sapiens, UniProt O15379). The assay can be described thus: Inhibition of HDAC3 (unknown origin).
Conditions: not given
Consider `COc1cc(/C=C/C(=O)NO)ccc1OCCCNC(=O)c1ccccc1O`, for which the 50% inhibitory concentration (IC50) was determined as 0.68 µM.
In turn, `COc1cc(/C=C/C(=O)NO)ccc1OCCCCNC(=O)c1ccccc1O` yielded an IC50 of 0.41 µM.
Same read-out and setting: under `COc1cc(/C=C/C(=O)NO)ccc1OCCN(C)C(=O)c1ccccc1O` stands 0.38 µM; under `COc1cc(/C=C/C(=O)NO)ccc1OCCCN(C)C(=O)c1ccccc1O`, 0.29 µM.
Compound `COc1cc(/C=C/C(=O)NO)ccc1OCCCCN(C)C(=O)c1ccccc1O` returned an IC50 of 0.26 µM.

Another assay deals with T2, Protein deacetylase HDAC6. In words: Inhibition of HDAC6 (unknown origin).
Conditions: not given
Consider `COc1cc(/C=C/C(=O)NO)ccc1OCCCNC(=O)c1ccccc1O`, for which the IC50 was 0.55 µM.
`COc1cc(/C=C/C(=O)NO)ccc1OCCCCNC(=O)c1ccccc1O` gave an IC50 of 0.36 µM.
For `COc1cc(/C=C/C(=O)NO)ccc1OCCN(C)C(=O)c1ccccc1O`, the IC50 is 0.43 µM.
`COc1cc(/C=C/C(=O)NO)ccc1OCCCN(C)C(=O)c1ccccc1O` gave an IC50 of 0.35 µM.
`COc1cc(/C=C/C(=O)NO)ccc1OCCCCN(C)C(=O)c1ccccc1O` displayed a concentration for half-maximal inhibition (IC50) of 0.38 µM.

The target of another assay is T1, Histone deacetylase 1. The assay can be described thus: Inhibition of recombinant human GST-tagged HDAC1 expressed in baculovirus infected Sf9 insect cells Fluor-de-lys as substrate measured after 2 hrs by fluorescence assay.
Conditions: not given
Turning to `CCC(CC)CN(CC)Cc1c(C)nc2cc(/C=C/C(=O)NO)ccn12`, the half-inhibitory concentration (IC50) is 0.01 µM.
As to `CCCCNCc1c(CCCC)nc2cc(/C=C/C(=O)NO)ccn12`, the IC50 was found to be 0.02 µM.
On the same count and under the same terms, under `CN(Cc1c(C(C)(C)C)nc2cc(/C=C/C(=O)NO)ccn12)CC(C)(C)C` stands 0.78 µM.
